Results taken from ChEMBL document CHEMBL1150243, “Lignan glycosides from Neoalsomitra integrifoliola” (2008).

Assay: Antiinflammatory activity against rat polymorphonuclear leucocytes assessed as inhibition of platelet activating factor-induced beta-glucuronidase release
Type: functional

For `C[C@@H]1C(=O)O[C@H]2[C@H](O)[C@@]34[C@H]5C[C@@H](C(C)(C)C)[C@]36[C@@H](OC(=O)[C@@H]6O)O[C@@]4(C(=O)O5)[C@@]12O` [GINKOLIDE B], the “inhibition (INH)” value was 78.4%.
